Test results as given in patent US12252524B2, “GIP/GLP1 co-agonist compounds” (Eli Lilly and Company, priority 2018, dated 2025).
Read-outs that look alike come from different tables or passages of the source. Numbered stars: 1 amine (or outer) side, 2 acyl side, 3 side chain; on linkers, the order of the positions; unused ones are H or OH. Square brackets hold non-standard residues; d marks the D form. Side chains are listed from the residue outwards. Peptide text beside a SMILES is read from it. * marks the point of attachment. C20 diacid = O=C(O)CCCCCCCCCCCCCCCCCCC(=O)*; C18 diacid = O=C(O)CCCCCCCCCCCCCCCCC(=O)*; αMePhe(2-F) = C[C@](N)(Cc1ccccc1F)C(=O)O; γGlu = O=C(O)[C@H](CCC(=O)[*:2])N[*:1]; αMeL = CC(C)C[C@](C)(N)C(=O)O; Orn = NCCC[C@H](N)C(=O)O; AEEA = NCCOCCOCC(=O)O; Aib = CC(C)(N)C(=O)O

What was measured:
[1] = molecular target: T1, human GLP-1R (Homo sapiens, UniProt P43220); test: [125I]-GLP-1 binding (SPA), human GLP-1 receptor; design: expressed in transfected cells; crude membranes
Summary of the method: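 Membranes: hypotonic lysis (50 mM Tris HCl, pH 7.5, protease inhibitors), Potter-Elvehjem homogenization, high-speed pellet (35000×g 1 h or 25000×g 30 min, 4° C.). Buffer: 25 mM HEPES pH 7.4, 2.5 mM CaCl2, 1 mM MgCl2. Four-parameter IC50 fit; Ki as geometric mean ± SEM.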

[2] = molecular target: T2, gastric inhibitory peptide receptor (GIPR) (Homo sapiens, UniProt P48546); test: cAMP pharmacological functional assay in presence of casein, hGIPR; type: cell-based
T2 sequence (P48546 22-466): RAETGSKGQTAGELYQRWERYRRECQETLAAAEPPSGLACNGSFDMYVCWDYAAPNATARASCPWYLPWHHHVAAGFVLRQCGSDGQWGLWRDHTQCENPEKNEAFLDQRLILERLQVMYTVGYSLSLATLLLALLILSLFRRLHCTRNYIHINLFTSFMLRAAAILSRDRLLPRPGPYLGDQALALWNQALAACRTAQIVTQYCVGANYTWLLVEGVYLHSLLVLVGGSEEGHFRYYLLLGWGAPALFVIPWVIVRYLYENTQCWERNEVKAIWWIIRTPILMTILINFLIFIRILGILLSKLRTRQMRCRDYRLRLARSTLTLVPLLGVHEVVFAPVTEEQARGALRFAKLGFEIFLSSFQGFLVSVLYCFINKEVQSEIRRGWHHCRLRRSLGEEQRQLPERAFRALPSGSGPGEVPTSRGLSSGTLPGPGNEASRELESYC

[3] = molecular target: T3, human GIP receptor (Homo sapiens, UniProt P48546); test: [125I]-GIP binding (SPA), human GIP receptor
T3 construct: expressed in transfected cells; crude membranes
T3 sequence (P48546 22-466): T2 sequence (P48546 22-466)

[4] = molecular target: human GLP-1 receptor (GLP-1R) (Homo sapiens, UniProt P43220); test: cAMP pharmacological functional assay in presence of casein, hGLP-1R; type: cell-based
[5] = molecular target: T1, human GLP-1R; test: GLP-1R HEK293 cell membrane [35S]GTPγS binding assay; type: biochemical; design: expressed in transfected cells; host or cells: HEK293 cells expressing human GLP-1R; membranes
Summary of the method: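 Agonist-driven Gαs activation read as [35S]GTPγS ([…]) binding to receptor-expressing HEK293 membranes, 30 min at room temperature, pH 7.4. Detection by anti-Gαs immunocapture on scintillation beads; EC50 derived from four-parameter logistic concentration-response fit.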

[6] = molecular target: T4, human Gcg receptor (Homo sapiens, UniProt P47871); test: [125I]-Glucagon binding (SPA), human Gcg receptor
T4 construct: expressed in transfected cells; crude membranes
Summary of the method: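 Scintillation counts are taken after membranes and WGA beads incubate and settle for 12 hours at room temperature. Buffer is 25 mM HEPES, pH 7.4, with CaCl2, MgCl2, bacitracin and Tween-20. Ki values, from four-parameter IC50 fits, are geometric means over independent days.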

[7] = read-out: hGLP1R Ki, (nM) (SEM, n)
[8] = HEK293 cells expressing hGIPR, 0.1% Casein, geometric mean, read-out: hGIPR cAMP Rel EC50 nM (SEM, n)
[9] = read-out: hGIPR Ki, nM (SEM, n)
[10] = HEK293 cells expressing hGLP-1R, 0.1% Casein, geometric mean, read-out: hGLP1R cAMP Rel EC50 nM (SEM, n)
[11] = HEK293 cell membranes expressing human GLP-1R, [35S]GTPγS binding, read-out: hGLP1R GTPgS Rel EC50 nM (SEM, n)
[12] = read-out: hGLcgR Ki, nM (SEM, n)

T4 sequence (P47871 26-477): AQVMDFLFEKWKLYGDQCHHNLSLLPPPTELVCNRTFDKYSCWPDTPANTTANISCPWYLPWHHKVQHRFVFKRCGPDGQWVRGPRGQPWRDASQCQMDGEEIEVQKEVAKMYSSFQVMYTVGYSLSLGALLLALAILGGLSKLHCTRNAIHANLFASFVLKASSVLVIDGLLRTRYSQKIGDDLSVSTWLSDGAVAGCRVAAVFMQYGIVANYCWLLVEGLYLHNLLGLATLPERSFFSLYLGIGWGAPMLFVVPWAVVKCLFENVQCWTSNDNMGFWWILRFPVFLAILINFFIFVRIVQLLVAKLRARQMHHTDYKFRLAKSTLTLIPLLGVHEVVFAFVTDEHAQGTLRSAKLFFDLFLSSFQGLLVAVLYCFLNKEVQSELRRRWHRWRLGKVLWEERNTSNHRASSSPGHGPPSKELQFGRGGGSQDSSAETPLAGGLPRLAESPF
T1 sequence (P43220 24-463): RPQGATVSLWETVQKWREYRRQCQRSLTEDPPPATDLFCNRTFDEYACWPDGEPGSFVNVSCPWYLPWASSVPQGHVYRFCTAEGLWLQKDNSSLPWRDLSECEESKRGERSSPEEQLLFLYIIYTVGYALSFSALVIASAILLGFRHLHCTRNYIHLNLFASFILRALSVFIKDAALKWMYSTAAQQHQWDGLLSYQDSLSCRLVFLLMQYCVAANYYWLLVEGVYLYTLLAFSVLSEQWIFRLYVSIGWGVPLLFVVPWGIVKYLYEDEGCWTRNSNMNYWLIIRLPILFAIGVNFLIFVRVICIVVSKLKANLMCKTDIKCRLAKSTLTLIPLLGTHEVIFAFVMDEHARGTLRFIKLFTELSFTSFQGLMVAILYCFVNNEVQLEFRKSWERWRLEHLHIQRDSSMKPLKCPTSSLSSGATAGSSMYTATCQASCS
Sequence of human GLP-1 receptor (GLP-1R) (P43220 24-463): as above

Row | Structure (SMILES) | Ki [1] | EC50 [2] | Ki [3] | EC50 [4] | EC50 [5] | Ki [6] | Ki [1, 7] | EC50 [2, 8] | Ki [3, 9] | EC50 [4, 10] | EC50 [5, 11] | Ki [6, 12]
1 | CC[C@H](C)[C@H](NC(=O)[C@H](CC(C)C)NC(=O)[C@](C)(Cc1ccc(O)cc1)NC(=O)[C@@H](CCC(=O)O)NC(=O)[C@@H](NC(=O)[C@H](Cc1ccccc1)NC(=O)[C@H](CCC(=O)O)NC(=O)C(C)(C)NC(=O)[C@H](CCC(N)=O)NC(=O)[C@H](C)NC(=O)[C@H](CCCCNC(=O)COCCOCCNC(=O)COCCOCCNC(=O)CC[C@H](NC(=O)CCCCCCCCCCCCCCCCC(=O)O)C(=O)O)NC(=O)[C@H](CCCN)NC(=O)[C@H](CC(=O)O)NC(=O)[C@H](CC(C)C)NC(=O)[C@](C)(CC(C)C)NC(=O)[C@@H](NC(=O)[C@H](CO)NC(=O)[C@H](Cc1ccncc1)NC(=O)[C@H](CC(=O)O)NC(=O)[C@H](CO)NC(=O)[C@@H](NC(=O)[C@](C)(Cc1ccccc1F)NC(=O)[C@@H](NC(=O)CNC(=O)[C@H](CCC(=O)O)NC(=O)C(C)(C)NC(=O)[C@@H](N)Cc1ccc(O)cc1)[C@@H](C)O)[C@@H](C)O)[C@@H](C)CC)[C@@H](C)CC)C(=O)N[C@@H](CCC(=O)O)C(=O)NCC(=O)NCC(=O)N1CCC[C@H]1C(=O)N[C@@H](CO)C(=O)N[C@@H](CO)C(=O)NCC(=O)N[C@@H](C)C(=O)N1CCC[C@H]1C(=O)N1CCC[C@H]1C(=O)N1CCC[C@H]1C(=O)N[C@@H](CO)C(N)=O [Example 4] | 1.63 nM | 0.0272 nM | 0.0528 nM | 0.0297 nM | 0.245 nM | 686 nM |  |  |  |  |  | 
2 | CC[C@H](C)[C@H](NC(=O)[C@H](CC(C)C)NC(=O)[C@H](Cc1ccc(O)cc1)NC(=O)[C@@H](CCC(=O)O)NC(=O)[C@@H](NC(=O)[C@H](Cc1ccccc1)NC(=O)[C@H](CCC(=O)O)NC(=O)C(C)(C)NC(=O)[C@H](CCC(N)=O)NC(=O)[C@H](C)NC(=O)[C@H](CCCCNC(=O)COCCOCCNC(=O)COCCOCCNC(=O)CC[C@H](NC(=O)CCCCCCCCCCCCCCCCCCC(=O)O)C(=O)O)NC(=O)[C@H](CCC(=O)O)NC(=O)[C@H](CC(=O)O)NC(=O)[C@H](CC(C)C)NC(=O)[C@](C)(CC(C)C)NC(=O)[C@@H](NC(=O)[C@H](CO)NC(=O)[C@H](Cc1ccc(O)cc1)NC(=O)[C@H](CC(=O)O)NC(=O)[C@H](CO)NC(=O)[C@@H](NC(=O)[C@](C)(Cc1ccccc1F)NC(=O)[C@@H](NC(=O)CNC(=O)[C@H](CCC(=O)O)NC(=O)C(C)(C)NC(=O)[C@@H](N)Cc1ccc(O)cc1)[C@@H](C)O)[C@@H](C)O)[C@@H](C)CC)[C@@H](C)CC)C(=O)N[C@@H](CCC(=O)O)C(=O)NCC(=O)NCC(=O)N1CCC[C@H]1C(=O)N[C@@H](CO)C(=O)N[C@@H](CO)C(=O)NCC(=O)N[C@@H](C)C(=O)N1CCC[C@H]1C(=O)N1CCC[C@H]1C(=O)N1CCC[C@H]1C(=O)N[C@@H](CO)C(N)=O [Example 1] (H-Y[Aib]EGT[αMePhe(2-F)]TSDYSI[αMeL]LDEK([AEEA-AEEA-γGlu-C20 diacid])AQ[Aib]EFI[dE]YLIEGGPSSGAPPPS-NH2) | 6.67 nM | 0.0356 nM | 0.0546 nM | 0.041 nM | 0.235 nM | 207 nM |  |  |  |  |  | 
3 | CC[C@H](C)[C@H](NC(=O)[C@H](CC(C)C)NC(=O)[C@H](Cc1ccc(O)cc1)NC(=O)[C@H](CCC(=O)O)NC(=O)[C@@H](NC(=O)[C@H](Cc1ccccc1)NC(=O)[C@H](C)NC(=O)C(C)(C)NC(=O)[C@H](CCC(N)=O)NC(=O)[C@H](C)NC(=O)[C@H](CCCCNC(=O)COCCOCCNC(=O)COCCOCCNC(=O)CC[C@H](NC(=O)CCCCCCCCCCCCCCCCCCC(=O)O)C(=O)O)NC(=O)[C@H](CCCCN)NC(=O)[C@H](CC(=O)O)NC(=O)[C@H](CC(C)C)NC(=O)[C@H](CC(C)C)NC(=O)[C@@H](NC(=O)[C@H](CO)NC(=O)[C@H](Cc1ccc(O)cc1)NC(=O)[C@H](CC(=O)O)NC(=O)[C@H](CO)NC(=O)[C@@H](NC(=O)[C@H](Cc1ccccc1)NC(=O)[C@@H](NC(=O)CNC(=O)[C@H](CCC(=O)O)NC(=O)C(C)(C)NC(=O)[C@@H](N)Cc1ccc(O)cc1)[C@@H](C)O)[C@@H](C)O)[C@@H](C)CC)[C@@H](C)CC)C(=O)N[C@@H](C)C(=O)NCC(=O)NCC(=O)N1CCC[C@H]1C(=O)N[C@@H](CO)C(=O)N[C@@H](CO)C(=O)NCC(=O)N[C@@H](C)C(=O)N1CCC[C@H]1C(=O)N1CCC[C@H]1C(=O)N1CCC[C@H]1C(=O)N[C@@H](CO)C(N)=O [Example 288] (H-Y[Aib]EGTFTSDYSILLDKK([AEEA-AEEA-γGlu-C20 diacid])AQ[Aib]AFIEYLIAGGPSSGAPPPS-NH2; N-terminus assumed) |  |  |  |  |  |  | 1.6 nM | 0.0732 nM | 0.058 nM | 0.172 nM | 0.666 nM | 345 nM
4 | CC[C@H](C)[C@H](NC(=O)[C@H](CC(C)C)NC(=O)[C@H](Cc1ccc(O)cc1)NC(=O)[C@@H](CCC(=O)O)NC(=O)[C@@H](NC(=O)[C@H](Cc1ccccc1)NC(=O)[C@H](CCC(=O)O)NC(=O)C(C)(C)NC(=O)[C@H](CCC(N)=O)NC(=O)[C@H](C)NC(=O)[C@H](CCCCNC(=O)COCCOCCNC(=O)COCCOCCNC(=O)CC[C@H](NC(=O)CCCCCCCCCCCCCCCCC(=O)O)C(=O)O)NC(=O)[C@H](CCCN)NC(=O)[C@H](CC(=O)O)NC(=O)[C@H](CC(C)C)NC(=O)[C@](C)(CC(C)C)NC(=O)[C@@H](NC(=O)[C@H](CO)NC(=O)[C@H](Cc1ccc(O)cc1)NC(=O)[C@H](CC(=O)O)NC(=O)[C@H](CO)NC(=O)[C@@H](NC(=O)[C@](C)(Cc1ccccc1F)NC(=O)[C@@H](NC(=O)CNC(=O)[C@H](CCC(=O)O)NC(=O)C(C)(C)NC(=O)[C@@H](N)Cc1ccc(O)cc1)[C@@H](C)O)[C@@H](C)O)[C@@H](C)CC)[C@@H](C)CC)C(=O)N[C@@H](CCC(=O)O)C(=O)NCC(=O)NCC(=O)N1CCC[C@H]1C(=O)N[C@@H](CO)C(=O)N[C@@H](CO)C(=O)NCC(=O)N[C@@H](C)C(=O)N1CCC[C@H]1C(=O)N1CCC[C@H]1C(=O)N1CCC[C@H]1C(=O)N[C@@H](CO)C(N)=O [Example 2] (H-Y[Aib]EGT[αMePhe(2-F)]TSDYSI[αMeL]LD[Orn]K([AEEA-AEEA-γGlu-C18 diacid])AQ[Aib]EFI[dE]YLIEGGPSSGAPPPS-NH2; N-terminus assumed) | 2.35 nM | 0.0339 nM | 0.06 nM | 0.0441 nM | 0.642 nM | 361 nM |  |  |  |  |  | 
5 | CC[C@H](C)[C@H](NC(=O)[C@H](CC(C)C)NC(=O)[C@H](Cc1ccc(O)cc1)NC(=O)[C@H](CCC(=O)O)NC(=O)[C@@H](NC(=O)[C@H](Cc1ccccc1)NC(=O)[C@H](CCC(=O)O)NC(=O)C(C)(C)NC(=O)[C@H](CCC(N)=O)NC(=O)[C@H](C)NC(=O)[C@H](CCCCNC(=O)COCCOCCNC(=O)COCCOCCNC(=O)CC[C@H](NC(=O)CCCCCCCCCCCCCCCCCCC(=O)O)C(=O)O)NC(=O)[C@H](CCCCN)NC(=O)[C@H](CC(=O)O)NC(=O)[C@H](CC(C)C)NC(=O)[C@](C)(CC(C)C)NC(=O)[C@@H](NC(=O)[C@H](CO)NC(=O)[C@H](Cc1ccc(O)cc1)NC(=O)[C@H](CC(=O)O)NC(=O)[C@H](CO)NC(=O)[C@@H](NC(=O)[C@H](Cc1ccccc1)NC(=O)[C@@H](NC(=O)CNC(=O)[C@H](CCC(=O)O)NC(=O)C(C)(C)NC(=O)[C@@H](N)Cc1ccc(O)cc1)[C@@H](C)O)[C@@H](C)O)[C@@H](C)CC)[C@@H](C)CC)C(=O)N[C@@H](C)C(=O)NCC(=O)NCC(=O)N1CCC[C@H]1C(=O)N[C@@H](CO)C(=O)N[C@@H](CO)C(=O)NCC(=O)N[C@@H](C)C(=O)N1CCC[C@H]1C(=O)N1CCC[C@H]1C(=O)N1CCC[C@H]1C(=O)N[C@@H](CO)C(N)=O [Example 289] (H-Y[Aib]EGTFTSDYSI[αMeL]LDKK([AEEA-AEEA-γGlu-C20 diacid])AQ[Aib]EFIEYLIAGGPSSGAPPPS-NH2) |  |  |  |  |  |  | 2.63 nM | 0.0228 nM | 0.0457 nM | 0.0544 nM | 0.404 nM | > 1050 nM
